In patent US11230547B2, “Purine inhibitors of human phosphatidylinositol 3-kinase delta” (Merck Sharp & Dohme Corp., priority 2017, dated 2022):

How the values were obtained:
PI3Kdelta = PI3Kdelta (Homo sapiens (Human), UniProt O00329); experiment: HTRF PI3K biochemical assay, delta isoform; conditions: 0.3 nM enzyme, 100 uM ATP, 5 uM PIP2, form screened per table
Procedure, shortened: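 PI3Kδ at 0.3 nM preincubated 15 min with compound, then reacted 1 h at room temperature with 100 uM ATP and 5 uM PIP2. PIP3 product detected by competitive HTRF displacing biotin-PIP3 from GST-GRP1 PH domain, so signal falls with activity. 10-point 3-fold dose response.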

PI3Kalpha = PI3Kalpha (Homo sapiens (Human), UniProt P42336); experiment: HTRF PI3K biochemical assay, alpha isoform (selectivity versus delta); conditions: relative ratio PI3K-alpha IC50 value / PI3K-delta IC50 value
Procedure, shortened: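 Recombinant human PI3Kα (0.5 nM) preincubated 15 min with compound, then reacted 1 h at room temperature with 100 uM ATP and 5 uM PIP2. PIP3 formation detected by HTRF competition with biotin-PIP3 for GST-GRP1 PH domain (Eu/APC, 665/620 nm); product lowers signal.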

Chain of PI3Kdelta (O00329 whole entry, the tested form may be a part, canonical isoform): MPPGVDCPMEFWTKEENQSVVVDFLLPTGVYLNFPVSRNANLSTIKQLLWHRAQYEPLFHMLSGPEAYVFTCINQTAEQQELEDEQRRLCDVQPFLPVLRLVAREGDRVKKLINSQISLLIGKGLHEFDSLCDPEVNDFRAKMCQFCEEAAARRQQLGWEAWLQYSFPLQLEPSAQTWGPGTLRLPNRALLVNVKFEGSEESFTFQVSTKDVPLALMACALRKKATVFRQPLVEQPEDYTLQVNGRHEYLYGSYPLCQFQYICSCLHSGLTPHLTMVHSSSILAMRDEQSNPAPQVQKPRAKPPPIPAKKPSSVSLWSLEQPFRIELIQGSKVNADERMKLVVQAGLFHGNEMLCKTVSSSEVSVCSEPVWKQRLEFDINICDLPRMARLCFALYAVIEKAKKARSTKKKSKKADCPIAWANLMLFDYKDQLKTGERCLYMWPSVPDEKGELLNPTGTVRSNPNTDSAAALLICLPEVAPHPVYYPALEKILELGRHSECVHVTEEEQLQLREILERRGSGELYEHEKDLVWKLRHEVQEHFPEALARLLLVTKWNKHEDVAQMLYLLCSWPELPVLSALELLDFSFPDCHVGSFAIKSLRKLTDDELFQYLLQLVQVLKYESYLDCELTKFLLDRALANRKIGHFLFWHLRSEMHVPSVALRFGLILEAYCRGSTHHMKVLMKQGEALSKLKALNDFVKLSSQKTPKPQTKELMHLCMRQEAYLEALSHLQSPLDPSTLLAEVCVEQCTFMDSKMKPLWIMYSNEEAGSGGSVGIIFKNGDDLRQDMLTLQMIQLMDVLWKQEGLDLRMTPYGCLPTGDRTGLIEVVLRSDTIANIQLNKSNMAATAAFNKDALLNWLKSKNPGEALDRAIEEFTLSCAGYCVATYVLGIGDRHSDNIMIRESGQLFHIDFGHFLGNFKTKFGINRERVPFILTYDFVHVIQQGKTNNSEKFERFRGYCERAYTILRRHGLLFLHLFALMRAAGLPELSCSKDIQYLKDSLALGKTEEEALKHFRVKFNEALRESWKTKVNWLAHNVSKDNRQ
Chain of PI3Kdelta (P27986 whole entry partner, the tested form may be a part, canonical isoform): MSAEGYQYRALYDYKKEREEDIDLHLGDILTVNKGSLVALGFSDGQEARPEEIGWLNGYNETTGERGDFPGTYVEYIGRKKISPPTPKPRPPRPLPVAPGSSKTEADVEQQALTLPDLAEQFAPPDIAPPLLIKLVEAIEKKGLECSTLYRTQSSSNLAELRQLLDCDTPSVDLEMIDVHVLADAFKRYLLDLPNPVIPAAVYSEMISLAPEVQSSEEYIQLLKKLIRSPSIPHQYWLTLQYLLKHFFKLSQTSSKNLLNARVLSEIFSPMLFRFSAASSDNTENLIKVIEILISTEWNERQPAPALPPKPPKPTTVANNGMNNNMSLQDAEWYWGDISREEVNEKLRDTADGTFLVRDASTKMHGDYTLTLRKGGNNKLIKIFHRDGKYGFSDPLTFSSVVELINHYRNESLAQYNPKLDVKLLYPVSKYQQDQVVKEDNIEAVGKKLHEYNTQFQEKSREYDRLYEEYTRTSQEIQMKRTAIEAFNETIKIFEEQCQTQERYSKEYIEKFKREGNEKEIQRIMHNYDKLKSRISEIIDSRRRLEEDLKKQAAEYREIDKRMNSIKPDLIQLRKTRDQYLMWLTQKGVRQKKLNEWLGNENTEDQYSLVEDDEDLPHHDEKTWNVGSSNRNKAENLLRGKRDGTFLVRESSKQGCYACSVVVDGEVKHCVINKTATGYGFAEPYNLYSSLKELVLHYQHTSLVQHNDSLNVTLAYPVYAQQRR
Chain of PI3Kalpha (P42336 whole entry, the tested form may be a part, canonical isoform): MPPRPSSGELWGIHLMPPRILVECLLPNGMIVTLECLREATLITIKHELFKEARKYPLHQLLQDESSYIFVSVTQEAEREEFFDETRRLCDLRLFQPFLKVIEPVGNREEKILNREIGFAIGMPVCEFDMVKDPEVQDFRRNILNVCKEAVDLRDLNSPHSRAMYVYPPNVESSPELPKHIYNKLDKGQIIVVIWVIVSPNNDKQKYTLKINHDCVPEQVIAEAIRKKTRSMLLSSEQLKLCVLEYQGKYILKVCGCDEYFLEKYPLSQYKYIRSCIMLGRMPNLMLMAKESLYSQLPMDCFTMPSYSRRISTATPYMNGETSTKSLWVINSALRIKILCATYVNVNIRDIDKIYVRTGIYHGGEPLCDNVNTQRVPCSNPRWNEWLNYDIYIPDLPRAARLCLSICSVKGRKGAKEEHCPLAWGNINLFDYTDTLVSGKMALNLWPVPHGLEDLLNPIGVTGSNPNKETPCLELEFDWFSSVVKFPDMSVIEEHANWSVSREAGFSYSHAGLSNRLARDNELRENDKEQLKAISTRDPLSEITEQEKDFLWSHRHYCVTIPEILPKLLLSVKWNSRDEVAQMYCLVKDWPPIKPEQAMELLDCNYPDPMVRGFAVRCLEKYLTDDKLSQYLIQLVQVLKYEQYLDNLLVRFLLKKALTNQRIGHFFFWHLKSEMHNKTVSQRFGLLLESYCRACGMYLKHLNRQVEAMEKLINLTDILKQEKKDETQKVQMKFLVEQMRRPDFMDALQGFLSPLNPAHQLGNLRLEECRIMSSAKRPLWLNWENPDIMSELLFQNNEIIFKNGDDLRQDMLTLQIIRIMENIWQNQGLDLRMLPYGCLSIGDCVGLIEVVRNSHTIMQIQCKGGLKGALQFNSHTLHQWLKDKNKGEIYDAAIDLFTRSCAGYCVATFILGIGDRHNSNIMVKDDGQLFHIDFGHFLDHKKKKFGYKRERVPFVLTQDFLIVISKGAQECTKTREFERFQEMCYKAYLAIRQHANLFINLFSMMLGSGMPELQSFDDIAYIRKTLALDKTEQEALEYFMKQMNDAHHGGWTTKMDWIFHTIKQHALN
Chain of PI3Kalpha (P27986 whole entry partner, the tested form may be a part, canonical isoform): as the sequence (P27986 whole entry partner, the tested form may be a part, canonical isoform) above

IC50 (PI3Kdelta) [nM]	Selectivity versus PI3Kalpha (PI3Kalpha)	Structure (SMILES)
32	>10	C[C@@H]1CN(c2nc(-c3cnn(C)c3)c(C#N)c(C3CC3)n2)CCN1C(=O)C1CC1 [Compound 6-27, 4-cyclopropyl-2-[(3R)-4-(cyclopropylcarbonyl)-3-methylpiperazin-1-yl]-6-(1-methyl-1H-pyrazol-4-yl)pyrimidine-5-carbonitrile]
140	>10	Cc1nn(C)cc1-c1ncc(C#N)c(N2CCN(C(=O)C3CC3)[C@H](C)C2)n1 [Compound 6-28, 4-[(3R)-4-(cyclopropylcarbonyl)-3-methylpiperazin-1-yl]-2-(1,3-dimethyl-1H-pyrazol-4-yl)pyrimidine-5-carbonitrile]
81	>10	Cc1c(-c2ncc(C#N)c(N3CCN(C(=O)C4CC4)[C@H](C)C3)n2)cnn1C [Compound 6-29, 4-[(3R)-4-(cyclopropylcarbonyl)-3-methylpiperazin-1-yl]-2-(1,5-dimethyl-1H-pyrazol-4-yl)pyrimidine-5-carbonitrile]
330	>10	C[C@@H]1CN(c2nc(-c3cnn(C(F)F)c3)ncc2C#N)CCN1C(=O)C1CC1 [Compound 6-30, 4-[(3R)-4-(cyclopropylcarbonyl)-3-methylpiperazin-1-yl]-2-[1-(difluoromethyl)-1H-pyrazol-4-yl]pyrimidine-5-carbonitrile]

More lines, now with the values behind:

Structure (SMILES)	IC50 (PI3Kdelta) [nM]	Selectivity versus PI3Kalpha (PI3Kalpha)
C[C@@H]1CN(c2nc(-c3cnn(C)c3)nc(NCCC(F)(F)F)c2C#N)CCN1C(=O)C1CC1 [Compound 6-19, 4-[(3R)-4-(cyclopropylcarbonyl)-3-methylpiperazin-1-yl]-2-(1-methyl-1H-pyrazol-4-yl)-6-[(3,3,3-trifluoropropyl)amino]pyrimidine-5-carbonitrile]	9.4	>10
CC(C)Nc1nc(-c2cnn(C)c2)nc(N2CCN(C(=O)C3CC3)[C@H](C)C2)c1C#N [Compound 6-20, 4-[(3R)-4-(cyclopropylcarbonyl)-3-methylpiperazin-1-yl]-6-[(1-methylethyl)amino]-2-(1-methyl-1H-pyrazol-4-yl)pyrimidine-5-carbonitrile]	150	>10
CC(C)CNc1nc(-c2cnn(C)c2)nc(N2CCN(C(=O)C3CC3)[C@H](C)C2)c1C#N [Compound 6-21, 4-[(3R)-4-(cyclopropylcarbonyl)-3-methylpiperazin-1-yl]-6-[(2-methylpropyl)amino]-2-(1-methyl-1H-pyrazol-4-yl)pyrimidine-5-carbonitrile]	21	>10
C[C@@H]1CN(c2nc(-c3cnn(C)c3)nc(OCC(F)(F)F)c2C#N)CCN1C(=O)C1CC1 [Compound 6-22, 4-[(3R)-4-(cyclopropylcarbonyl)-3-methylpiperazin-1-yl]-2-(1-methyl-1H-pyrazol-4-yl)-6-(2,2,2-trifluoroethoxy)pyrimidine-5-carbonitrile]	9.7	>10
C[C@@H]1CN(c2nc(-c3cnn(C)c3)nc(N3CC(C(F)(F)F)C3)c2C#N)CCN1C(=O)C1CC1 [Compound 6-23, 4-[(3R)-4-(cyclopropylcarbonyl)-3-methylpiperazin-1-yl]-2-(1-methyl-1H-pyrazol-4-yl)-6-[3-(trifluoromethyl)azetidin-1-yl]pyrimidine-5-carbonitrile]	83	>10
CCCc1nc(-c2cnn(C)c2)nc(N2CCN(C(=O)C3CC3)[C@H](C)C2)c1C#N [Compound 6-24, 4-[(3R)-4-(cyclopropylcarbonyl)-3-methylpiperazin-1-yl]-2-(1-methyl-1H-pyrazol-4-yl)-6-propylpyrimidine-5-carbonitrile]	200	>10
CCCc1nc(N2CCN(C(=O)C3CC3)[C@H](C)C2)nc(-c2cnn(C)c2)c1C#N [Compound 6-25, 2-[(3R)-4-(cyclopropylcarbonyl)-3-methylpiperazin-1-yl]-4-(1-methyl-1H-pyrazol-4-yl)-6-propylpyrimidine-5-carbonitrile]	10	>10
C[C@@H]1CN(c2nc(CCC(F)(F)F)c(C#N)c(-c3cnn(C)c3)n2)CCN1C(=O)C1CC1 [Compound 6-26, 2-[(3R)-4-(cyclopropylcarbonyl)-3-methylpiperazin-1-yl]-4-(1-methyl-1H-pyrazol-4-yl)-6-(3,3,3-trifluoropropyl)pyrimidine-5-carbonitrile]	12	>10
